Experimental data published in patent US6689609B1, “Enhancing germination of plant somatic embryos by priming” (Cellfor Inc., priority 1999, dated 2004).
Like-named read-outs stand apart in the source and are kept apart here.

Experiments:
[1] = test system: interior spruce somatic embryos; experiment: Ascorbic acid in nutripriming solution and germination media: germination and growth of interior spruce genotype 4-2809 somatic embryos; format: in vivo, Picea glauca (Moench) Voss x P. engelmannii Parry ex Engelm.
Method: Mature somatic embryos of interior spruce (Picea glauca (Moench) Voss x P. engelmannii Parry ex […].) genotype 4-2809 were desiccated with the HRHT treatment, and then nutriprimed in 3% w/v sucrose m24GMD solutions for 3 days as previously described. The nutripriming solutions were formulated with one of the following three ascorbic acid treatments; 0, 10 uM, 100 uM. The nutriprimed somatic embryos were then sown into germination boxes containing 150 ml vermiculite plus 120 ml of 3% w/v sucrose m24GMD liquid medium. […] Nutriprimed embryos from each ascorbic acid nutripriming treatment were then sown into triplicate boxes of each ascorbic acid-amended germination medium. After sowing, the germination boxes were sealed twice with ParafilmTM. Embryos were germinated and grown for two weeks under 50-70 μmol m^-2s^-1 photosynthetic photon flux of 16-hour photoperiod at an air temperature of 22° C. Then, the germinants were harvested, and measured.

[2] = test system: interior spruce somatic embryos; format: in vivo, Picea glauca (Moench) Voss x P. engelmannii Parry ex Engelm.; conditions: for % with hyperhydricity: in vivo
Text: The second study assessed the effects adding various osmotica to nutripriming solutions on subsequent germination and development performance. Mature somatic embryos of interior spruce (Picea glauca (Moench) Voss x P. engelmannii Parry ex Engelm.) genotype 23-2672 were desiccated with the HRHT treatment, and then divided into 10 groups of 160 somatic embryos per group. One group was not primed and served as the HRHT control treatment for this study. […] The nutripriming solutions and embryos were placed into 250-ml Kimax® baffled flasks. The nutripriming duration was 72 hrs at temperatures ranging between 20-23° C., and a 24-hr photoperiod of 30 μmol m^−2s^−1 photosynthetic photon flux.
At the completion of the nutripriming step, the nutriprimed embryos from each treatment were divided into 8 groups of 20 embryos and sown by hand onto vermiculite media in Sigma polycarbonate boxes. The liquid media in these germination boxes were either 3% w/v sucrose m24GMD or m24GMD without sucrose. The experiment design was a random complete block design for each media type. Each nutripriming treatment had 4 replicates of 20 embryos in each germination media type. The germination boxes were placed in a germination room and grown for two weeks under 50-70 μmol m^−2s^−1 photosynthetic photon flux of 16-hour photoperiod at an air temperature of 23° C. The germinants were then harvested and assessed for germination rates, hyperhydricity rates, shoot and root length. Germination was defined as germinants having a root longer than 2 mm, and elongated hypercotyl. Hyperhydricity was defined by the thickening of hypercotyl and watery appearance of the germinants, whether germinated or not germinated.

[3] = AA 0 μM in germination media, 10 μM in priming solution
[4] = AA 0 μM in germination media, 100 μM in priming solution
[5] = AA 1 μM in germination media, 0 μM in priming solution
[6] = AA 1 μM in germination media, 10 μM in priming solution
[7] = AA 1 μM in germination media, 100 μM in priming solution
[8] = AA 10 μM in germination media, 0 μM in priming solution
[9] = AA 10 μM in germination media, 10 μM in priming solution
[10] = AA 10 μM in germination media, 100 μM in priming solution
[11] = AA 100 μM in germination media, 0 μM in priming solution
[12] = AA 100 μM in germination media, 10 μM in priming solution
[13] = AA 100 μM in germination media, 100 μM in priming solution
[14] = AA 1000 μM in germination media, 0 μM in priming solution
[15] = AA 1000 μM in germination media, 10 μM in priming solution
[16] = AA 1000 μM in germination media, 100 μM in priming solution
[17] = germination media m24GMD (without sucrose), osmoticant levels as E220
[18] = germination media m24GMD plus 3% sucrose, osmoticant in m24GMD priming solution (w/v): 1% betaine, 1.65% fructose, glucose, mannitol, sorbitol, 3% lactose, maltose, sucrose, 10% PEG 4000, 72 hrs
[19] = germination media m24GMD plus 3% sucrose, osmoticant levels as E220

`O=C1O[C@H]([C@@H](O)CO)C(O)=C1O` [AA, Ascorbic acid] gave a Germination % [1, 3] of 100.0 ± 0.0%, a Root length [1, 3] of 2.59 ± 0.26 cm and a Rooting % [1, 3] of 86.7 ± 3.3%. For the same compound, the Shoot length [1, 3] was 1.86 ± 0.10 cm, the Germination % [1, 4] was 100.0 ± 0.0% and the Root length [1, 4] was 3.56 ± 0.37 cm. For the same compound, the Rooting % [1, 4] was 96.7 ± 3.3%, the Shoot length [1, 4] was 2.07 ± 0.11 cm and the Germination % [1, 5] was 96.7 ± 3.3%. The Root length [1, 5] was 1.90 ± 0.23 cm, the Rooting % [1, 5] was 85.8 ± 3.0% and the Shoot length [1, 5] was 1.68 ± 0.10 cm. It also gave a Germination % [1, 6] of 100.0 ± 0.0%, a Root length [1, 6] of 2.07 ± 0.22 cm and a Rooting % [1, 6] of 86.7 ± 8.8%. For the same compound, the Shoot length [1, 6] was 1.83 ± 0.11 cm, the Germination % [1, 7] was 100.0 ± 0.0% and the Rooting % [1, 7] was 90.0 ± 0.0%. For the same compound, the Shoot length [1, 7] was 1.79 ± 0.09 cm, the Germination % [1, 8] was 97.5 ± 2.5% and the Root length [1, 8] was 2.46 ± 0.30 cm. The Rooting % [1, 8] was 87.5 ± 6.3%, the Shoot length [1, 8] was 1.84 ± 0.09 cm and the Germination % [1, 9] was 96.7 ± 3.3%. For the same compound, the Root length [1, 9] was 2.82 ± 0.36 cm, the Rooting % [1, 9] was 86.7 ± 3.3% and the Shoot length [1, 9] was 1.97 ± 0.19 cm. It also gave a Germination % [1, 10] of 100.0 ± 0.0%, a Root length [1, 10] of 3.24 ± 0.32 cm and a Rooting % [1, 10] of 96.7 ± 3.3%. It also gave a Shoot length [1, 10] of 2.33 ± 0.11 cm, a Germination % [1, 11] of 93.3 ± 3.3% and a Root length [1, 11] of 2.50 ± 0.33 cm. For the same compound, the Rooting % [1, 11] was 63.3 ± 8.8%, the Shoot length [1, 11] was 1.81 ± 0.09 cm and the Germination % [1, 12] was 100.0 ± 0.0%. For the same compound, the Root length [1, 12] was 3.18 ± 0.42 cm, the Rooting % [1, 12] was 78.2% and the Shoot length [1, 12] was 2.02 ± 0.11 cm. It also gave a Germination % [1, 13] of 100.0 ± 0.0%, a Root length [1, 13] of 3.61 ± 0.39 cm and a Rooting % [1, 13] of 73.0%. For the same compound, the Shoot length [1, 13] was 2.12 ± 0.11 cm, the Germination % [1, 14] was 100.0 ± 0.0% and the Root length [1, 14] was 2.11 ± 0.25 cm. The Rooting % [1, 14] was 90.0 ± 0.0%, the Shoot length [1, 14] was 1.79 ± 0.14 cm and the Germination % [1, 15] was 100.0 ± 0.0%. For the same compound, the Root length [1, 15] was 2.55 ± 0.20 cm, the Rooting % [1, 15] was 95.0 ± 5.0% and the Shoot length [1, 15] was 2.00 ± 0.09 cm. The Germination % [1, 16] was 100.0 ± 0.0%, the Root length [1, 16] was 2.19 ± 0.26 cm and the Rooting % [1, 16] was 90.0 ± 5.8%. For the same compound, the Shoot length [1, 16] was 1.75 ± 0.15 cm.
With `C[N+](C)(C)CC(=O)O` [betaine] the Germination % [2, 17] was 45.0 ± 26.3%, the Root length [2, 17] was 0.4 ± 0.2 mm and the Shoot length [2, 17] was 11.2 ± 0.3 mm. It also gave a Germination % [2, 18] of 100%, a Root length [2, 19] of 12.2 ± 0.8 mm and a Shoot length [2, 19] of 14.2 ± 0.3 mm. For the same compound, the “% with hyperhydricity” value [2] was 76.3 ± 19.1%.
`O=C(CO)[C@@H](O)[C@H](O)[C@H](O)CO` [fructose] was tested, and the Germination % [2, 17] was 87.5 ± 7.8%, the Root length [2, 17] was 2.1 ± 0.1 mm and the Shoot length [2, 17] was 10.0 ± 0.3 mm. The Germination % [2, 18] was 100%, the Root length [2, 19] was 12.2 ± 0.8 mm and the Shoot length [2, 19] was 13.5 ± 0.3 mm. For the same compound, the “% with hyperhydricity” value [2] was 86.3 ± 9.4%.
`OC[C@H]1O[C@@H](O[C@H]2[C@H](O)[C@@H](O)C(O)O[C@@H]2CO)[C@H](O)[C@@H](O)[C@H]1O` (stereo partly drawn) [lactose] gave a Germination % [2, 17] of 27.6 ± 24.3%, a Root length [2, 17] of 0.3 ± 0.1 mm and a Shoot length [2, 17] of 11.5 ± 0.2 mm. The Germination % [2, 18] was 100%, the Root length [2, 19] was 12.4 ± 0.8 mm and the Shoot length [2, 19] was 15.5 ± 0.3 mm. For the same compound, the “% with hyperhydricity” value [2] was 100%.
In the case of `OC[C@H]1O[C@H](O[C@H]2[C@H](O)[C@@H](O)[C@H](O)O[C@@H]2CO)[C@H](O)[C@@H](O)[C@@H]1O` [maltose], the Germination % [2, 17] is reported as 0%, the Root length [2, 17] is reported as 0.8 ± 0.1 mm and the Shoot length [2, 17] is reported as 11.2 ± 0.3 mm. For the same compound, the Germination % [2, 18] was 98.8%, the Root length [2, 19] was 11.5 ± 0.8 mm and the Shoot length [2, 19] was 14.2 ± 0.3 mm. For the same compound, the “% with hyperhydricity” value [2] was 100%.
Work on `OC[C@@H](O)[C@@H](O)[C@H](O)[C@H](O)CO` [mannitol] yielded a Germination % [2, 17] of 24.6 ± 12.7%, a Root length [2, 17] of 0.3 ± 0.1 mm and a Shoot length [2, 17] of 10.0 ± 0.3 mm. It also gave a Germination % [2, 18] of 100%, a Root length [2, 19] of 12.0 ± 0.5 mm and a Shoot length [2, 19] of 13.6 ± 0.3 mm. The “% with hyperhydricity” value [2] was 93.5 ± 5.0%.
